# According to US20210238177A1, “CRYSTALLINE FORMS OF 3-((1R,5S,9r)-9-ETHOXY-3-AZABICYCLO[3.3.1]NONAN-9-YL)-BENZAMIDE AND SALT FORMS THEREOF” (Alkermes, Inc., priority 2020, published 2021):
# Test: Dynamic Vapor Sorption (DVS) with PXRD of the material after DVS
# Format: physicochemical
# Method: DVS analysis was conducted using a TA Instruments TGA Q5000 SA. DVS was run at 25 degrees C. The sample was pre-dried at 25 degrees C. and 0% relative humidity (% RH) until the dm/dt was 0.01% for up to 300 minutes. Adsorption and desorption isotherms were measured by ramping the humidity from 0% RH to 90% RH to 0% RH at 10% RH step intervals with a stability criterion of dm/dt=0.01% or 300 minutes unless otherwise noted. Data analysis was performed using Universal Analysis 2000 Version 4.5 A.
SMILES,"water (DVS weight gain) (25 degrees C, first cycle, up to 50% RH)","solid form after DVS (PXRD pattern) (after two cycle DVS, 0% RH to 90% RH to 0% RH, 25 degrees C)",relative stability of HCl salt solid forms (conclusion based on the DVS experiment)
"CCOC1(c2cccc(C(N)=O)c2)C2CCCC1CNC2.Cl [hydrochloride Form D, 3-((1R,5S,9r-9-ethoxy-3-azabicyclo-[3.3.1]nonan-9-yl)-benzamide hydrochloride]",approximately 0.5%,consistent with hydrochloride Form B,–
"CCOC1(c2cccc(C(N)=O)c2)C2CCCC1CNC2.Cl [hydrochloride Form B, 3-((1R,5S,9r-9-ethoxy-3-azabicyclo-[3.3.1]nonan-9-yl)-benzamide hydrochloride]",–,–,most stable HCl salt solid form
